Source: patent US11712434B2, “Compound having anti-cancer effect, and preparation method therefor and use thereof” (3D MEDICINES (BEIJING) CO., LTD., priority 2016, dated 2023)
“And” between values parts separate entries of the source, which are not always exact repeats. Equal entries are not always repeated. “Also recorded” adds a separate entry of the source.

Assay: Plasma stability study of compound 8 in rat plasma
Type: in vitro ADME, SD rat
Details: for Residual compound 8 concentration: 37° C., Repeat 1 and 2
Method: The purpose of this example was to investigate the stability of incubation of compound 8 in rat plasma (compound 8 was metabolized to form intermediate compound 12 and Linifanib, intermediate compound 12 was further metabolized to form Linifanib), and the metabolites were quantified and analyzed, and the stability of the incubation system was verified by a positive drug, which provided a reference for the evaluation of the drug-forming properties of the compound.
1. Instruments and Materials • Instrument: API3000 LC/MS, ABI • Materials: Male SD rats (200-250 g), Beijing Vital River • Test sample: positive drug and its metabolites M1 and M2, compound 8 and its metabolite compound 12 and Linifanib.
2. Compound 8 Plasma Stability Study • Test animal • Type: SD rat; Quantity: 2 • Sex: male; weight: 200-250 g;
Experimental Procedure • 1). Animal blood was collected, blood samples were placed in EDTA anticoagulation tubes, centrifuged at 3000 g for 15 min at 4° C., plasma was separated, and 2 blood samples were mixed in equal volumes; • 2). Weighed a certain amount of compound 8 and dissolved in DMSO:MeOH (2:8), prepared into 200 μM mother liquor by purity conversion, and added the compound to plasma to reach a final concentration of 1 μg/mL in plasma. The organic ratio in the system was not more than 0.5%. • 3). Incubated in a 37° C. water bath and set the sampling points to 0, 0.5, 1, 2, 4, 6, 8 h. At each sampling point, 100 μL of each sample was collected and 300 μL of acetonitrile (with internal standard) was added for precipitation, centrifuged at 12,000 rpm for 5 min, and 200 μL of supernatant was taken for analysis by LC-MS/MS. • 4). Configured the standard curve to quantify compound 8, compound 12 and Linifanib

Cc1ccc(F)c(NC(=O)Nc2ccc(-c3cccc4[nH]nc(NC(=O)CCCCCCCCCCCNC(=O)C[C@H](N)C(=O)N[C@@H](CCC(=O)N[C@@H](CCC(=O)N[C@@H](CCC(=O)N[C@@H](CCC(=O)O)C(=O)O)C(=O)O)C(=O)O)C(=O)O)c34)cc2)c1 [Compound 8]
amount of Compound 12 and Linifanib produced by metabolism: extremely small
Residual compound 8 concentration (0 h): 1200 ng/mL and 680 ng/mL
Residual compound 8 concentration (0.5 h): 1190 ng/mL and 1450 ng/mL
Residual compound 8 concentration (1 h): 1460 ng/mL and 1620 ng/mL
Residual compound 8 concentration (2 h): 960 ng/mL and 1040 ng/mL
Residual compound 8 concentration (4 h): 876 ng/mL and 868 ng/mL
Residual compound 8 concentration (6 h): 1110 ng/mL and 1190 ng/mL
Residual compound 8 concentration (8 h): 1200 ng/mL and 680 ng/mL
stability in plasma (up to 8 h): relatively stable; also recorded: very good
